In patent US4208514A, “4(3H)-Oxobenzo-2,1,3-thiadiazine-2,2-dioxides” (The Dow Chemical Company, priority 1976, dated 1980):

Assays:
Type in all cases: in vivo
[1] = test system: Jimson Weed; assay: Selective post-emergent greenhouse test, Jimson Weed; details: post-emergence, 336 h, 2 weeks; for pest or weed control at 358.672 g/ha: 0.32 lbs/acre; for pest or weed control at 706.135 g/ha: 0.63 lbs/acre
Description: (§1) So as to illustrate clearly the phytotoxic properties of the various active ingredients of the present invention, a group of controlled greenhouse experiments is described below.
(§2) Various species of plants, both broadleaf weeds and valuable crops, were planted in beds of good agricultural soil in a greenhouse. After the plants had emerged and grown to a height of about 2-6 inches, a portion of the plants were sprayed with an aqueous mixture, made by mixing a selected active ingredient and emulsifier or dispersant with water to provide solution containing 250 or 125 ppm active ingredient, employing sufficient amounts of the treating composition to provide low post emergent application rates of about 0.63 or 0.32 pounds per acre. Other portions of the plants were left untreated to serve as controls. In each test the active ingredient was a 3-methylethyl-1H-2,1,3-benzothiadiazin-4(3H)-one-2,2-dioxide having a substituent in the one position according to the invention.
(§3) After a period of 2 weeks the selective effect of the test ingredient on the plants was evaluated by a comparison with the control group of plants.

[2] = test system: Velvet Leaf; assay: Selective post-emergent greenhouse test, Velvet Leaf; details: post-emergence, 336 h, 2 weeks; for pest or weed control at 358.672 g/ha: 0.32 lbs/acre; for pest or weed control at 706.135 g/ha: 0.63 lbs/acre
Description: as §1, §2, §3

[3] = test system: Soybean; assay: Selective post-emergent greenhouse test, Soybean (crop injury); details: Glycine max, post-emergence, 336 h, 2 weeks, read-out: % Control Soybean; for plant injury at 358.672 g/ha: 0.32 lbs/acre; for plant injury at 706.135 g/ha: 0.63 lbs/acre
Description: as §1, §2, §3

[4] = test system: Cotton; assay: Selective post-emergent greenhouse test, Cotton (crop injury); details: Gossypium hirsutum, post-emergence, 336 h, post-emergent, 2 weeks, crop, read-out: % Control Cotton; for plant injury at 358.672 g/ha: 0.32 lbs/acre; for plant injury at 706.135 g/ha: 0.63 lbs/acre
Description: as §1, §2, §3

[5] = test system: Nutsedge; assay: General post-emergent herbicidal activity at 10 lbs/acre, Nutsedge; details: Cyperus, post-emergence, 336 h
Description: as §2, with “[…], […]” for “emulsifier or dispersant with water to provide solution containing 250 or 125 ppm active ingredient, employing sufficient amounts of the treating composition to provide low post emergent application rates of about 0.63 or 0.32 pounds per acre.”
as §3

[6] = test system: Pig Weed; assay: General post-emergent herbicidal activity at 10 lbs/acre, Pig Weed; details: post-emergence, 336 h
Description: as §2, with “[…], […]” for “emulsifier or dispersant with water to provide solution containing 250 or 125 ppm active ingredient, employing sufficient amounts of the treating composition to provide low post emergent application rates of about 0.63 or 0.32 pounds per acre.”
as §3

[7] = test system: Annual Morning Glory; assay: General post-emergent herbicidal activity at 10 lbs/acre, Annual Morning Glory; details: Ipomoea, post-emergence, 336 h
Description: as §2, with “[…], […]” for “emulsifier or dispersant with water to provide solution containing 250 or 125 ppm active ingredient, employing sufficient amounts of the treating composition to provide low post emergent application rates of about 0.63 or 0.32 pounds per acre.”
as §3

[8] = test system: Velvet Leaf; assay: General post-emergent herbicidal activity at 10 lbs/acre, Velvet Leaf; details: post-emergence, 336 h
Description: as §2, with “[…], […]” for “emulsifier or dispersant with water to provide solution containing 250 or 125 ppm active ingredient, employing sufficient amounts of the treating composition to provide low post emergent application rates of about 0.63 or 0.32 pounds per acre.”
as §3

| Structure (SMILES) | pest or weed control at 358.672 g/ha [1] [%] | pest or weed control at 706.135 g/ha [1] [%] | pest or weed control at 358.672 g/ha [2] [%] | pest or weed control at 706.135 g/ha [2] [%] | plant injury at 358.672 g/ha [3] [%] | plant injury at 706.135 g/ha [3] [%] | plant injury at 358.672 g/ha [4] [%] | plant injury at 706.135 g/ha [4] [%] | pest or weed control at 11208.5 g/ha [5] [%] | pest or weed control at 11208.5 g/ha [6] [%] | pest or weed control at 11208.5 g/ha [7] [%] | pest or weed control at 11208.5 g/ha [8] [%] |
| --- | --- | --- | --- | --- | --- | --- | --- | --- | --- | --- | --- | --- |
| COC(=O)N1c2ccccc2C(=O)N(C(C)C)S1(=O)=O [CO2 CH3] | 100 | 100 | 100 | 100 | 0 | 0 | 0 | 10 | 50 | 100 | 100 | 100 |
| CC(Cl)C(=O)N1c2ccccc2C(=O)N(C(C)C)S1(=O)=O (centres unmarked) [COCHClCH3, 1H-2,1,3-Benzothiadiazin-4(3H)-one: 1-(2-chloro-1-oxopropyl)-3-(1-methylethyl)-; 2,2-dioxide] | 100 | 100 | 100 | 100 | 0 | 0 | 0 | 100 | 95 | 100 | 100 | 100 |
| CCSC(=O)N1c2ccccc2C(=O)N(C(C)C)S1(=O)=O [COSCH2 CH3, 1H-2,1,3-Benzothiadiazine-1-carbothioic acid: 3,4-Dihydro-3-(1-methylethyl)-4-oxo, S-ethyl ester; 2,2-dioxide] | 100 | 100 | 100 | 100 | 0 | 0 | 100 | 100 | 95 | 100 | 100 | 100 |
| CC=CC(=O)N1c2ccccc2C(=O)N(C(C)C)S1(=O)=O [COCHCHCH3, 1H-2,1,3-Benzothiadiazin-4(3H)-one: 3-(1-methylethyl)-1-(1-oxo-2-butenyl)-;2,2-dioxide] |  | 100 | 70 | 100 | 0 | 0 | 0 | 0 | 90 | 100 | 100 | 100 |
| CC(C)N1C(=O)c2ccccc2N(C(=O)CCl)S1(=O)=O [COCH2 Cl, 1-(2-Chloroacetyl)-3-(1-methylethyl)-1H-2,1,3-benzothiadiazin-4(3H)-one-2,2-Dioxide] | 100 | 100 | 70 | 100 | 10 | 10 | 20 | 70 | 100 | 100 | 100 | 100 |
| C=CCOC(=O)N1c2ccccc2C(=O)N(C(C)C)S1(=O)=O [CO2 CH2 CHCH2, 1H-2,1,3-Benzothiadiazine-1-carboxylic Acid: 3,4-dihydro-3-(1-methylethyl)-4-oxo-, 2-Propenyl Ester, 2,2-Dioxide] | 100 | 100 | 100 | 100 | 0 | 0 | 50 | 50 | 95 | 100 | 100 | 100 |
| COCC(=O)N1c2ccccc2C(=O)N(C(C)C)S1(=O)=O [COCH2 OCH3, 1H-2,1,3-Benzothiadiazin-4(3H)-one: 1-methoxyacetyl-3-(1-methylethyl)-; 2,2-dioxide] | 100 | 100 | 80 | 100 | 0 | 0 | 0 | 0 | 90 | 100 | 100 | 100 |
| CC(=O)N1c2ccccc2C(=O)N(C(C)C)S1(=O)=O [COCH3, 1H-2,1,3-Benzothiadiazin-4(3H)-one: 1-acetyl-3-(1-methyl-ethyl)-; 2,2-dioxide] | 60 | 60 | 100 | 100 | 0 | 0 | 5 | 0 | 95 | 100 | 100 | 100 |
| CSC(=O)N1c2ccccc2C(=O)N(C(C)C)S1(=O)=O [COSCH3, 1H-2,1,3-Benzothiadiazin-1-carbothioic acid: 3,4-Dihydro-3-(1-methylethyl)-4-oxo-, S-methyl ester; 2,2-Dioxide] | 100 | 100 | 90 | 100 | 0 | 0 | 90 | 100 | 85 | 100 | 100 | 100 |
